EC50 data for 56 compounds are collected here from patent US20100331297A1, “MODULATION OF PROTEIN TRAFFICKING” (FOLDRX PHARMACEUTICALS, INC., priority 2007, published 2010).

This experiment deals with ΔF508 CFTR (Homo sapiens, UniProt P13569, DEL508-508). Kind of experiment: Corrector activity, YFP halide (iodide) quenching assay in FRT cells expressing ΔF508 CFTR. The arrangement: expressed in transfected cells; host or cells: Fischer rat thyroid (FRT) cells. Type of experiment: cell-based. To be noted: FRT cells ΔF508 CFTR/YFP, 24 hours with compound at 37° C., forskolin and genistein; read-out: Corrector EC50. As to the method: Fisher rat thyroid (FRT) cells stably expressing ΔF508 CFTR and a halide-sensitive variant of yellow fluorescent protein (YFP) were seeded into microtiter plates and allowed to grow for 24 hours at 37° C. and 5% CO2. See Pedemonte et al., J. Clin. Invest. […] Compounds in dimethylsulfoxide (DMSO) solution were pre-diluted into cell culture medium, the medium was removed from cells, and then fresh medium containing the compounds was applied. The cells were incubated for a further 24 hours at 37° C. and 5% CO2.
Chain of ΔF508 CFTR (P13569 with tags, fused parts or gaps DEL508-508): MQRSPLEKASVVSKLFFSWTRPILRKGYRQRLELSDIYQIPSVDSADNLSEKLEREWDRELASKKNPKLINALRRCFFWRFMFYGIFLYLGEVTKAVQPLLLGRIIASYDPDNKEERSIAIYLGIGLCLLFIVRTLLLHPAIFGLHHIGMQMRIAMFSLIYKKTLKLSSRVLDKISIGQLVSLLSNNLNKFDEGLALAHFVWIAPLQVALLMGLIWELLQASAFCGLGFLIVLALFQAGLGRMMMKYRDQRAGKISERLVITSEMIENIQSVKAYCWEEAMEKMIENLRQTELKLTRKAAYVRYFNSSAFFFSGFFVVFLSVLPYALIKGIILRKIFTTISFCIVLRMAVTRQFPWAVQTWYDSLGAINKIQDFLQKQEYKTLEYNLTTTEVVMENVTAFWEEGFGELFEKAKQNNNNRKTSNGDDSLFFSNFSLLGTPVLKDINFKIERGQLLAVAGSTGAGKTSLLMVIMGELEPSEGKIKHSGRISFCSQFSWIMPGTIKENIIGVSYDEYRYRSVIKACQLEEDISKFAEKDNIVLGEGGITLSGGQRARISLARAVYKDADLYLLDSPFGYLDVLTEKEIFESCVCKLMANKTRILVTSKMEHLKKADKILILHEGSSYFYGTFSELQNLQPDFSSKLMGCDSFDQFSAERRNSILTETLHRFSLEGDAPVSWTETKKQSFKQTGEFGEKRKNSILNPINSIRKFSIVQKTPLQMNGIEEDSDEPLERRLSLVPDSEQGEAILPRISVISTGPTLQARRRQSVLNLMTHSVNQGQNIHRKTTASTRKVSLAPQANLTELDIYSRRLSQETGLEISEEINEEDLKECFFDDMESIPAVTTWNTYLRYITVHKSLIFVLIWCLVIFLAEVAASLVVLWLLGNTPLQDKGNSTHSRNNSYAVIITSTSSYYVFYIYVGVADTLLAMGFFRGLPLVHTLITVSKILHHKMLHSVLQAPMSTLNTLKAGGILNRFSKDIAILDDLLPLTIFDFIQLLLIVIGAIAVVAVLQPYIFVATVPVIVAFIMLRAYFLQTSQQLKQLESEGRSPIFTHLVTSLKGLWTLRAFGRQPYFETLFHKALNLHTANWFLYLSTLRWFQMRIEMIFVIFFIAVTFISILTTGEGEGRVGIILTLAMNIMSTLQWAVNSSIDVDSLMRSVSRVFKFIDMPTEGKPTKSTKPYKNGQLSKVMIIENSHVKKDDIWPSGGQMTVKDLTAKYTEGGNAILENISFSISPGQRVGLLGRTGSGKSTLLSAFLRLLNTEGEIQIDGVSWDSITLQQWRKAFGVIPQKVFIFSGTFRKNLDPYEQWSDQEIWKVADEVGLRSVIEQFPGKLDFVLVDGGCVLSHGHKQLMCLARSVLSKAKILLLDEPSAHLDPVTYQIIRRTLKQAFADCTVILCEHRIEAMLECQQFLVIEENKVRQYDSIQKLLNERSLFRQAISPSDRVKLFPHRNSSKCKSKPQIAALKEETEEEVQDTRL
Activity of CFTR was assayed by removing the medium, washing the cell monolayer with phosphate-buffered saline solution (PBS), and then applying PBS containing forskolin and genistein. After 30 min incubation at 37° C., the plates were placed in a fluorescence plate reader equipped with a reagent injector.
Corrector activity was calculated as follows. Normalized endpoint fluorescence was calculated by dividing the endpoint fluorescence after iodide injection by the initial fluorescence reading and multiplication by 100. Corrector EC50 values were calculated from the activity vs. concentration data using a 4-parameter log fit. The bottom of the curve was constrained to zero activity (DMSO control) while the slope, EC50, and top of the curve were fitted to the data. The EC50 was determined as the concentration that corresponds to the inflection point of the fitted curve.
In general, EC50 refers to the concentration at which the effect is half-maximal. Consider `CCNC(=O)n1nc(-c2ccc(Cl)cc2)c2c(N)ncnc21` [Compound No. 213, 4-Amino-3-(4-chloro-phenyl)-pyrazolo[3,4-d]pyrimidine-1-carboxylic acid ethylamide], for which the EC50 was in the range of 5 to 10 µM.
Under `Nc1ncnc2c1c(Oc1cccc(Cl)c1)nn2C1CCCC1` [Compound No. 221, 3-(3-Chloro-phenoxy)-1-cyclopentyl-1H-pyrazolo[3,4-d]pyrimidin-4-ylamine] stands over 15 µM; under `CCn1nc(Nc2ccccc2)c2c(N)ncnc21` [Compound No. 223, 1-Ethyl-N^3-phenyl-1H-pyrazolo[3,4-d]pyrimidine-3,4-diamine], over 15 µM; under `Cc1ccc(-c2nn(-c3ncccn3)c3ncnc(N)c23)cc1` [Compound No. 229, 1-Pyrimidin-2-yl-3-p-tolyl-1H-pyrazolo[3,4-d]pyrimidin-4-ylamine], over 15 µM.
The figure for `CC(C)(C)n1nc(-c2ccc(Cl)cc2)c2c(NC(=O)Nc3ccccc3)ncnc21` [Compound No. 230, 1-[1-tert-Butyl-3-(4-chloro-phenyl)-1H-pyrazolo[3,4-d]pyrimidin-4-yl]-3-phenyl-urea] is over 15 µM.
Regarding `CN(C)/C=N/c1ncnc2c1c(-c1ccc(Cl)cc1)nn2C(C)(C)C` [Compound No. 232, N′-[1-tert-Butyl-3-(4-chloro-phenyl)-1H-pyrazolo[3,4-d]pyrimidin-4-yl]-N,N-dimethyl-formamidine], the EC50 is over 15 µM.
Regarding `Cc1ccc(-c2nn(C(C)(C)C)c3ncnc(Nc4ncccn4)c23)cc1` [Compound No. 234, (1-tert-Butyl-3-p-tolyl-1H-pyrazolo[3,4-d]pyrimidin-4-yl)-pyrimidin-2-yl-amine], the concentration for a half-maximal effect (EC50) is over 15 µM.
The figure for `CCn1nc(N(C)c2ccccc2)c2c(N)ncnc21` [Compound No. 248, 1-Ethyl-N^3-methyl-N^3-phenyl-1H-pyrazolo[3,4-d]pyrimidine-3,4-diamine] is over 15 µM.
The figure for `Nc1ncnc2c1c(Nc1ccccc1)nn2C1CCC1` [Compound No. 253, 1-Cyclobutyl-N^3-phenyl-1H-pyrazolo[3,4-d]pyrimidine-3,4-diamine] is over 15 µM; for `CC(=O)N(C)c1ncnc2c1c(-c1ccc(Cl)cc1)nn2C(C)(C)C` [Compound No. 259, N-[1-tert-Butyl-3-(4-chloro-phenyl)-1H-pyrazolo[3,4-d]pyrimidin-4-yl]-N-methyl-acetamide] it is over 15 µM; for `CC(C)(C)n1nc(-c2nc3ccccc3o2)c2c(N)ncnc21` [Compound No. 355, 3-Benzooxazol-2-yl-1-tert-butyl-1H-pyrazolo[3,4-d]pyrimidin-4-ylamine] it is 2 to 5 µM.
For `CC(C)(C)n1ncc2c(NC(=O)c3ccccc3)ncnc21` [Compound No. 388, N-(1-tert-Butyl-1H-pyrazolo[3,4-d]pyrimidin-4-yl)-benzamide], the EC50 is over 15 µM.
Under `CC(C)(C)n1nc(-c2ccc(Cl)cc2)c2c(NC(=O)C(=O)c3ccccc3)ncnc21` [Compound No. 395, N-[1-tert-Butyl-3-(4-chloro-phenyl)-1H-pyrazolo[3,4-d]pyrimidin-4-yl]-2-oxo-2-phenyl-acetamide] stands 5 to 10 µM; under `CNC(=S)Nc1ncnc2c1c(-c1ccc(Cl)cc1)nn2C(C)(C)C` [Compound No. 397, 1-[1-tert-Butyl-3-(4-chloro-phenyl)-1H-pyrazolo[3,4-d]pyrimidin-4-yl]-3-methyl-thiourea], over 15 µM.
The figure for `CCC(C)Cn1nc(-c2ccc(Cl)cc2)c2c(N)ncnc21` (centres unmarked) [compound 101] is over 15 µM; for `CC(=O)N(C(C)=O)c1ncnc2c1c(-c1ccc(F)cc1)nn2C(C)(C)C` [compound 117, N-Acetyl-N-[1-tert-butyl-3-(4-fluoro-phenyl)-1H-pyrazolo[3,4-d]pyrimidin-4-yl]-acetamide] it is over 15 µM.
For `CC(=O)c1ccc(-c2nn(C(C)(C)C)c3ncnc(N)c23)cc1` [compound 125], the EC50 is over 15 µM.
As to `CC(C)(C)n1nc(-c2ccc3ccccc3c2)c2c(N)ncnc21` [compound 129], the EC50 is 5 to 10 µM.
The figure for `CC(C)(C)n1nc(-c2ccc(O)c3ccccc23)c2c(N)ncnc21` [compound 164] is over 15 µM; for `COCCn1nc(-c2ccc(Cl)cc2)c2c(N)ncnc21` [compound 171] it is over 15 µM.
The figure for `CC(=O)n1nc(-c2ccc(Cl)cc2)c2c(N)ncnc21` [compound 181, 1-[4-Amino-3-(4-chloro-phenyl)-pyrazolo[3,4-d]pyrimidin-1-yl]-ethanone] is over 15 µM.
The figure for `Nc1ncnc2c1c(-c1ccc(Cl)cc1)nn2C(=O)C1CC1` [compound 182] is 5 to 10 µM; for `COC(=O)n1nc(-c2ccc(Cl)cc2)c2c(N)ncnc21` [compound 186, 4-Amino-3-(4-chloro-phenyl)-pyrazolo[3,4-d]pyrimidine-1-carboxylic acid methyl ester] it is over 15 µM.
Turning to `CC(C)(C)C1N=C(c2ccc(Cl)cc2)c2c(NC(=O)C3CCC3)ncnc21` (centres unmarked) [compound 192], the EC50 lay in the range of 2 to 5 µM.
`CS(=O)(=O)n1nc(-c2ccc(Cl)cc2)c2c(N)ncnc21` [compound 203, 3-(4-Chloro-phenyl)-1-methanesulfonyl-1H-pyrazolo[3,4-d]pyrimidin-4-ylamine]: the EC50 is over 15 µM.
Under `CCn1cc(-c2ccc(Cl)cc2)c2c(N(C(C)=O)C(C)=O)ncnc21` [compound 211, N-Acetyl-N-[5-(4-chloro-phenyl)-7-ethyl-7H-pyrrolo[2,3-d]pyrimidin-4-yl]-acetamide] stands 2 to 5 µM.
The figure for `Nc1ncnc2c1c(-c1ccc(Cl)cc1)nn2C(=O)Nc1ccccc1` [compound 214] is over 15 µM.
Under `Nc1ncnc2c1c(-c1ccc(Cl)cc1)nn2C(=O)NCc1ccccc1` [compound 215] stands over 15 µM.
As to `CCn1nc(Sc2cccc(F)c2)c2c(N)ncnc21` [compound 219], the EC50 was 2 to 5 µM.
`CCn1nc([S+]([O-])c2ccccc2C)c2c(N)ncnc21` (centres unmarked) [compound 222]: the EC50 is over 15 µM.
Under `CC(C)(C)n1nc(-c2ccc(Cl)cc2)c2c(NC(=O)NCc3ccccc3)ncnc21` [compound 231] stands over 15 µM; under `CC(C)(C)n1nc(-c2ccc(Cl)cc2)c2c(Nc3ncccn3)ncnc21` [compound 235], over 15 µM.
Take `CCNC(=O)Nc1ncnc2c1c(-c1ccc(Cl)cc1)nn2C(C)(C)C` [compound 239]: the EC50 was over 15 µM.
The figure for `Nc1ncnc2c1c(-c1ccc(Cl)cc1)nn2CCc1ccccc1` [compound 243] is over 15 µM; for `CCn1nc(Sc2ccncc2)c2c(N)ncnc21` [compound 249] it is over 15 µM; for `CCn1nc(Sc2cccc(O)c2)c2c(N)ncnc21` [compound 250] it is over 15 µM.
In the case of `Nc1ncnc2c1c(-c1ccc(Cl)cc1)nn2-c1ncccn1` [compound 251], the half-maximal effective concentration (EC50) was over 15 µM.
The figure for `CCn1nc([S+]([O-])c2ccc(F)cc2)c2c(N)ncnc21` (centres unmarked) [compound 254] is over 15 µM; for `CCn1nc(Sc2ccc(C)cc2)c2c(N)ncnc21` [compound 255] it is over 15 µM; for `CCn1nc(Sc2ccc(F)cc2F)c2c(N)ncnc21` [compound 258] it is over 15 µM.
The figure for `CCn1nc(Oc2cccc(Cl)c2)c2c(N)ncnc21` [compound 260] is over 15 µM; for `CC(C)C(=O)Nc1ncnc2c1c(-c1ccc(Cl)cc1)cn2C(C)(C)C` [compound 337] it is under 2 µM.
The figure for `CC(C)(C)n1nc(Oc2cccc(Cl)c2)c2c(NC(=O)C3CCCC3)ncnc21` [compound 338] is 5 to 10 µM; for `CCC(=O)Nc1ncnc2c1c(Oc1cccc(Cl)c1)nn2C(C)(C)C` [compound 339] it is 5 to 10 µM; for `CCn1nc([S+]([O-])c2cccc(C(F)(F)F)c2)c2c(N)ncnc21` (centres unmarked) [compound 340] it is over 15 µM.
As to `CCNC(=O)N1CC(n2nc(Sc3ccccc3)c3c(N)ncnc32)C1` [compound 348], the EC50 was over 15 µM.
The figure for `CC(C)(C)n1cc(-c2cccc(Cl)c2)c2c(N)ncnc21` [compound 354] is over 15 µM; for `CC(C)(C)OC(=O)N1CC(n2nc(Oc3cccc(Cl)c3)c3c(N)ncnc32)C1` [compound 357] it is over 15 µM.
The figure for `Nc1ncnc2c1c(Oc1cccc(Cl)c1)nn2C1CCOC1` (centres unmarked) [compound 358] is over 15 µM.
Under `Nc1ncnc2c1c(Oc1ccccc1)nn2C1CCOC1` (centres unmarked) [compound 359] stands over 15 µM; under `CC(C)N1CC(n2nc(Sc3cccc(Cl)c3)c3c(N)ncnc32)C1` [compound 360], over 15 µM.
Take `CC1CCC(n2nc(-c3ccc(Cl)cc3)c3c(N)ncnc32)CC1` (centres unmarked) [compound 361]: the concentration for a half-maximal effect (EC50) is over 15 µM.
The figure for `CC(C)(C)OC(=O)N1CCC(n2nc(Oc3ccccc3)c3c(N)ncnc32)CC1` [compound 362] is over 15 µM.
Under `CN1CCC(C(=O)Nc2ncnc3c2c(-c2ccc(Cl)cc2)nn3C(C)(C)C)C1` (centres unmarked) [compound 363] stands over 15 µM; under `CCn1c(C)c(-c2ccc(Cl)cc2)c2c(NC(=O)C(C)C)ncnc21` [compound 364], under 2 µM; under `CCn1c(C)c(-c2ccc(Cl)cc2)c2c(NC(=O)C3CCCC3)ncnc21` [compound 365], 2 to 5 µM.
